According to patent publication US20070259894A1, “Use of Atazanavir for Improving the Pharmacokinetics of Drugs Metabolized by Ugt1a1” (priority 2004, published 2007):
Read-outs that look alike come from different tables or passages of the source.

Experiments:
[1] = tested on: glucuronidation of Compound A by rat liver microsomes; experiment: Inhibition by atazanavir of glucuronidation of Compound A by rat liver microsomes; type: biochemical; conditions: atazanavir at a concentration of 50 μM
Description: The IC50 value of atazanavir for inhibition of glucuronidation of Compound A by human liver microsomes was determined using a pool of human liver microsomes (obtained from Xenotech LLC, Lenexa, Kans.). Compound A (as the potassium salt) was added to human liver microsomes (1.0 mg/mL) in a buffer consisting of 0.1 M potassium phosphate buffer (pH=7.4), 5 mM magnesium chloride, 10 μg/mL alamethicin, and 10 mM D-saccharic acid 1,4-lactone. The mixture of Compound A and the buffered microsomes (0.5 mL) was incubated at Compound A's Km (200 μM). UDPGA was added to the incubated sample to a concentration of 4 mM to initiate the glucuronidation reaction, which was stopped after 25 minutes (37° C.) with 2 volumes (i.e., 1 mL) of acetonitrile containing 1.5 μM of Compound B as an internal standard for the subsequent LC/MS analysis. Each of the samples was then centrifuged and the resulting supernatant was diluted 1:1 with 0.1% formic acid in water and a 10 μL aliquot was injected onto the LC/MS to determine the amount of glucuronide formation. […]
The IC50 value of atazanavir for inhibition of glucuronidation of Compound A in the presence of rat liver microsomes was determined using a procedure similar to that just described above for human liver microsomes.

[2] = In vivo rat studies: plasma levels of Compound A with and without atazanavir; parameters: species or system Male Sprague-Dawley rats; conditions: for AUC / Cmax: male, Sprague-Dawley, plasma
Description: Male Sprague-Dawley rats (4 rats/group) weighing approximately 300 grams each were given orally either 0.5% methylcellulose in water (control group) or atazanavir in 0.5% methylcellulose once a day for three days. The atazanavir daily doses were 50 mg/kg and were administered in 0.5% methylcellulose at 5 mL/kg. On day four the control rats were dosed with 10 mg/kg of Compound A in the form of a potassium salt in 0.5% methylcellulose while the treatment group received atazanavir followed by an oral dose of 10 mg/kg of Compound A (as potassium salt) in 0.5% methylcellulose. Blood samples were taken from all rats in treatment and control groups at 0, 0.25, 0.5, 1, 2, 4, 6, 8, and 24 hours post dose on day 4. Plasma levels of Compound A were determined by LC-MS/MS as follows:
UDP-glucuronosyltransferase activity was determined by measuring the formation of the glucuronide of Compound A. HPLC analysis was carried out on an Agilent HP 1100 gradient system using the following parameters: column=Phenomenex Luna C18-2 (2 mm×150 mm, 5 μm); mobile phase=0.1% formic acid in water (solvent A) and 0.1% formic acid in acetonitrile (solvent B); flow rate=0.2 mL/min; procedure=the initial solvent composition of 10% B was increased to 80% B over 10 minutes, followed by holding solvent B constant at 80% for 3 minutes, and then returning to initial conditions for 6 minutes. The HPLC system was interfaced with a Finnigan TSQ Quantum tandem mass spectrometer. Mass spectral analyses were carried out using electrospray ionization (ESI) in the positive ion mode. The temperature for the ion transfer tube was 320° C. and the ESI ionizing voltage was maintained at 4.4 kV for all analyses. Tandem mass spectrometry (MS/MS) was based on collision-induced dissociation (CID) of ions entering the rf-only octapole region where argon was used as the collision gas at a pressure of 0.8 mtorr. A collision offset at −22 eV was used for MS/MS analyses. The CID transitions used were m/z=621.1→445.1 (Compound A glucuronide) and 431.2→306.1 (Compound B).

[3] = In vivo human studies: plasma PK of Compound A with and without atazanavir; parameters: species or system healthy human male volunteers; conditions: for half-life: male, plasma, oral, read-out: alpha phase half-life (converted)
Description: The protocol was a 2-period, fixed sequence study in healthy human male volunteers to examine the influence of multiple doses of atazanavir on a single dose of Compound A. In Period 1, 12 subjects received a single oral dose of 100 mg of Compound A (i.e., a tablet as described in Part B of Example 3) (N=10) or placebo (N=2). In Period 2, the same 12 subjects were administered 400 mg atazanavir once daily in an open-label fashion (capsules) for 9 days. On Day 7, the subjects were administered atazanavir in combination with a single oral dose of 100 mg of Compound A (tablet) or placebo (the same subjects received placebo in both study periods). All doses were administered following a moderate-fat meal. Plasma PK samples were collected for 72 hours following the dose of Compound A in both periods.
Sample preparation and analysis: The plasma samples were extracted using 96-well liquid-liquid extraction. Plasma extracts were injected onto an Ace C18 (50×3.0 mm, 3 μm, titanium rits) HPLC column and analyzed under isocratic conditions with a mobile phase consisting of 42.5/57.5 (v/v %) 0.1 mM EDTA in 0.1% formic acid/methanol, at a flow rate of 0.5 mL/minute. The sample extracts were ionized using an APCI interface and were monitored by MRM in the positive ionization mode. The dynamic range of the LC/MS/MS assay was 2-1000 ng/mL based on a 200 μL aliquot of human plasma.
PK Calculations: Area under the curve for a plot of plasma concentration v. time to last detectable concentration (AUC0-last), was calculated using a non-compartmental model and the Linear Up/Log Down calculation method in WinNonlin Version 4.1. Data points after Cmax were fitted to a biexponential equation (A*exp(−αt)+B*exp(−βt)) using WinNonlin v4.1, and AUC values were extrapolated to infinity according to the following equation: […]=AUC0-last+Clast/β, where Clast is the last detectable concentration and β comes from the above-noted biexponential equation. Observed maximum plasma concentration (Cmax), time of Cmax (Tmax), and plasma concentration at 12 hr post dosing (C12hr) were determined by inspection.

[4] = Hygroscopicity by vapor sorption analysis; type: physicochemical; conditions: equilibrated at 95% RH at 25° C.
Description: Hygroscopicity data was obtained on a VTI Symmetrical Vapor Sorption Analyzer Model SGA-1. Data was collected at room temperature from 5-95% relative humidity and back, 5% relative humidity change per step. Equilibrium conditions were 0.01 weight percent change in 5 minutes with a maximum equilibration time of 180 minutes. […] When equilibrated back down to 5% RH, the material returned back to approximately its dry weight.

[5] = Compound A control group, oral 10 mg/kg (K salt), no atazanavir
[6] = oral Compound A 10 mg/kg (K salt) on day 4 with oral atazanavir 50 mg/kg once a day
[7] = single oral 100 mg Compound A tablet, atazanavir 400 mg once daily, moderate-fat meal

Q: For `COC(=O)N[C@H](C(=O)N[C@@H](Cc1ccccc1)[C@@H](O)CN(Cc1ccc(-c2ccccn2)cc1)NC(=O)[C@@H](NC(=O)OC)C(C)(C)C)C(C)(C)C` (relative stereo) [atazanavir, [3S-(3R*, 8′R*, 9′R*, 12R*)]-3,12-bis(1,1-dimethylethyl)-8-hydroxy-4,11-dioxo-9-(phenylmethyl)-6-[[4-(2-pyridinyl)phenylmethyl]2,5,6,10,13-pentaazatetradecanedioic] acid, dimethyl ester], which “inhibition of the glucuronidation of Compound A” value [1] is on record?
A: 41%

Q: Which results are given for `Cc1nnc(C(=O)NC(C)(C)c2nc(C(=O)NCc3ccc(F)cc3)c(O)c(=O)n2C)o1` [Compound A, N-(4-fluorobenzyl)-5-hydroxy-1-methyl-2-(1-methyl-1-{[(5-methyl-1,3,4-oxadiazol-2-yl)carbonyl]amino}ethyl)-6-oxo-1,6-dihydroxypyrimidine-4-carboxamide]?
A: increase of plasma levels of Compound A by atazanavir ([2]; atazanavir 50 mg/kg plus Compound A 10 mg/kg versus Compound A alone): about 3 fold; AUC [2, 5]: 2.9 ± 0.6 µM·h; Cmax [2, 5]: 2.3 ± 0.9 µM; AUC [2, 6]: 9.9 ± 3.7 µM·h; Cmax [2, 6]: 7.2 ± 6.1 µM; half-life ([3]; 100 mg Compound A alone): 1.1 h; half-life ([3]; 100 mg Compound A in the presence of atazanavir 400 mg once daily): 1.4 h; AUC0-last GMR in the presence versus absence of atazanavir [3, 7]: 1.73; Cmax GMR in the presence versus absence of atazanavir [3, 7]: 1.53; geometric mean ratio (GMR) 12 hr concentration in the presence versus absence of atazanavir [3, 7]: 1.96

Q: With `Cc1nnc(C(=O)NC(C)(C)c2nc(C(=O)NCc3ccc(F)cc3)c([O-])c(=O)n2C)o1.[K+]` as the molecule, how does the “weight increase (hygroscopicity)” value [4] read?
A: 1.8%
